# Read-outs that look alike come from different tables or passages of the source. Non-standard residues stand in square brackets, D forms with d. Residues, ends and D or L forms follow the SMILES beside them. *: point of attachment. Phe(4-NO2) = N[C@@H](Cc1ccc([N+](=O)[O-])cc1)C(=O)O; dPhe(4-NO2) = N[C@H](Cc1ccc([N+](=O)[O-])cc1)C(=O)O; dPhg = N[C@@H](C(=O)O)c1ccccc1; Phg = N[C@H](C(=O)O)c1ccccc1; Nle = CCCC[C@H](N)C(=O)O; For = O=C*
# Tests used:
# [1] = system: lizard (Anolis caroliniensis); format: cell-based
# Description: (§1) Biological effect on in vivo and in vitro melanosome dispersion was examined using the frog (Rana pipiens) and the lizard (Anolis caroliniensis). [See Hadley et al., Science 213:1025-1027(1981)]; similar examinations were conducted with respect to the duration of its ability to stimulate melanosome dispersion in vitro using the skin bioassay as described in Shimume, Endrochrinology, 54:553-560(1954). The in vitro results are depicted in Table I.
# frog (Rana pipiens) = format: cell-based
# Description: as §1
Compound,Relative Potency Lizard [1],Relative Potency Frog (frog (Rana pipiens)),"Relative Potency Frog (frog (Rana pipiens); in vitro skin bioassay, alpha-MSH = 1.0)"
CCCC[C@H](NC(C)=O)C(=O)N[C@@H](CCC(=O)O)C(=O)N[C@@H](Cc1c[nH]cn1)C(=O)N[C@@H](Cc1ccccc1)C(=O)N[C@@H](CCCNC(=N)N)C(=O)N[C@@H](Cc1c[nH]c2ccccc12)C(N)=O [Ac--[Nle^4 --alpha-MSH4-9 --NH2] (Ac-[Nle]EHFRW-NH2),0.18,0.0007,
CCCC[C@H](NC(C)=O)C(=O)N[C@@H](CCC(=O)O)C(=O)N[C@@H](Cc1c[nH]cn1)C(=O)N[C@H](Cc1ccccc1)C(=O)N[C@@H](CCCNC(=N)N)C(=O)N[C@@H](Cc1cn(C=O)c2ccccc12)C(=O)NCC(=O)N[C@@H](CCCCN)C(N)=O [Ac--[Nle^4 --D-Phe^7 --TrpFor^9]--alpha-MSH4-11 --NH2] (Ac-[Nle]EH[dF]RW(For)GK-NH2),,0.033,
CCCC[C@H](NC(C)=O)C(=O)N[C@@H](CCC(=O)O)C(=O)N[C@@H](Cc1c[nH]cn1)C(=O)N[C@@H](Cc1ccccc1)C(=O)N[C@H](CCCNC(=N)N)C(=O)N[C@@H](Cc1c[nH]c2ccccc12)C(=O)NCC(=O)N[C@@H](CCCCN)C(N)=O [Ac--[Nle^4 --D-Arg^8]--alpha-MSH4-11 --NH2] (Ac-[Nle]EHF[dR]WGK-NH2),0.0022,0.000016,
CCCC[C@H](NC(C)=O)C(=O)N[C@@H](CCC(=O)O)C(=O)N[C@@H](Cc1c[nH]cn1)C(=O)N[C@H](Cc1ccccc1)C(=O)N[C@@H](CCCNC(=N)N)C(=O)N[C@H](Cc1c[nH]c2ccccc12)C(N)=O [Ac--[Nle^4 --D-Phe^7 --D-Trp^9]--alpha-MSH4-9 --NH2] (Ac-[Nle]EH[dF]R[dW]-NH2),3.8,0.03,
CCCC[C@H](NC(C)=O)C(=O)N[C@@H](CCC(=O)O)C(=O)N[C@@H](Cc1c[nH]cn1)C(=O)N[C@@H](Cc1ccccc1)C(=O)N[C@@H](CCCNC(=N)N)C(=O)N[C@H](Cc1c[nH]c2ccccc12)C(=O)NCC(=O)N[C@@H](CCCCN)C(N)=O [Ac--[Nle^4 --D-Trp^9]--alpha-MSH4-11 --NH2] (Ac-[Nle]EHFR[dW]GK-NH2),1.7,0.61,
CCCC[C@H](NC(C)=O)C(=O)N[C@@H](CCC(=O)O)C(=O)N[C@@H](Cc1c[nH]cn1)C(=O)N[C@@H](C)C(=O)N[C@@H](CCCNC(=N)N)C(=O)N[C@@H](Cc1c[nH]c2ccccc12)C(=O)NCC(=O)N[C@@H](CCCCN)C(N)=O [Ac--[Nle^4 --Ala^7]--alpha-MSH4-11 --NH2] (Ac-[Nle]EHARWGK-NH2),0.009,0.02,
CCCC[C@H](NC(C)=O)C(=O)N[C@@H](CCC(=O)O)C(=O)N[C@@H](Cc1c[nH]cn1)C(=O)N[C@H](C)C(=O)N[C@@H](CCCNC(=N)N)C(=O)N[C@@H](Cc1c[nH]c2ccccc12)C(=O)NCC(=O)N[C@@H](CCCCN)C(N)=O [Ac--[Nle^4 --D-Ala^7]--alpha-MSH4-11 --NH2] (Ac-[Nle]EH[dA]RWGK-NH2),0.020,0.000080,
CC(=O)N[C@@H](Cc1ccc(O)cc1)C(=O)N[C@@H](CCC(=O)O)C(=O)N[C@@H](Cc1c[nH]cn1)C(=O)N[C@H](Cc1ccccc1)C(=O)N[C@@H](CCCNC(=N)N)C(=O)N[C@@H](Cc1c[nH]c2ccccc12)C(=O)NCC(=O)N[C@@H](CCCCN)C(N)=O [Ac--[Tyr^4 --D-Phe^7]--alpha-MSH4-11 --NH2] (Ac-YEH[dF]RWGK-NH2),,0.01,
CCCC[C@H](NC(C)=O)C(=O)N[C@@H](CCC(=O)O)C(=O)N[C@@H](Cc1c[nH]cn1)C(=O)N[C@@H](Cc1ccccc1)C(=O)N[C@@H](CCCNC(=N)N)C(=O)N[C@@H](Cc1c[nH]c2ccccc12)C(=O)NCC(=O)N[C@@H](CCCCN)C(N)=O [Ac--[Nle^4]-alpha-MSH4-11 --NH2] (Ac-[Nle]EHFRWGK-NH2),1.54,0.0019,
CCCC[C@H](NC(C)=O)C(=O)N[C@@H](CCC(=O)O)C(=O)N[C@@H](Cc1c[nH]cn1)C(=O)N[C@H](Cc1ccccc1)C(=O)N[C@@H](CCCNC(=N)N)C(=O)N[C@@H](Cc1c[nH]c2ccccc12)C(=O)NCC(=O)N[C@@H](CCCCN)C(N)=O [Ac--[Nle^4 --D-Phe^7]--alpha-MSH4-11 --NH2] (Ac-[Nle]EH[dF]RWGK-NH2),8.0,0.012,
CSCC[C@H](NC(C)=O)C(=O)N[C@@H](CCC(=O)O)C(=O)N[C@@H](Cc1c[nH]cn1)C(=O)N[C@H](C)C(=O)N[C@@H](CCCNC(=N)N)C(=O)N[C@@H](Cc1c[nH]c2ccccc12)C(=O)NCC(=O)N[C@@H](CCCCN)C(N)=O [Ac--[D-Ala^7]--alpha-MSH4-11 --NH2] (Ac-MEH[dA]RWGK-NH2),,0.001,
Ac--[Phe--Gly^7 ]--alpha-MSH4-11 --NH2,,,0.10
CCCC[C@H](NC(C)=O)C(=O)N[C@@H](CCC(=O)O)C(=O)N[C@@H](Cc1c[nH]cn1)C(=O)N[C@H](Cc1ccc([N+](=O)[O-])cc1)C(=O)N[C@@H](CCCNC(=N)N)C(=O)N[C@@H](Cc1c[nH]c2ccccc12)C(=O)NCC(=O)N[C@@H](CCCCN)C(N)=O [Ac--[Nle^4 --D-pNO2 Phe^7]-- alpha-MSH4-11 --NH2] (Ac-[Nle]EH[dPhe(4-NO2)]RWGK-NH2),4.0,0.10,
CCCC[C@H](NC(C)=O)C(=O)N[C@@H](CCC(=O)O)C(=O)N[C@H](Cc1c[nH]cn1)C(=O)N[C@H](Cc1ccccc1)C(=O)N[C@@H](CCCNC(=N)N)C(=O)N[C@@H](Cc1c[nH]c2ccccc12)C(=O)NCC(=O)N[C@@H](CCCCN)C(N)=O [Ac--[Nle^4 --D-His^6 --D-Phe^7]--alpha-MSH4-11 --NH2] (Ac-[Nle]E[dH][dF]RWGK-NH2),0.053,0.0006,
CSCC[C@H](NC(C)=O)C(=O)N[C@@H](CCC(=O)O)C(=O)N[C@@H](Cc1c[nH]cn1)C(=O)N[C@@H](Cc1ccc([N+](=O)[O-])cc1)C(=O)N[C@@H](CCCNC(=N)N)C(=O)N[C@@H](Cc1c[nH]c2ccccc12)C(=O)NCC(=O)N[C@@H](CCCCN)C(N)=O [Ac--[Phe(pNO2)^7]--alpha-MSH4-11 --NH2] (Ac-MEH[Phe(4-NO2)]RWGK-NH2),,0.0003,
CC(=O)N[C@@H](CCC(=O)O)C(=O)N[C@@H](Cc1c[nH]cn1)C(=O)N[C@H](Cc1ccccc1)C(=O)N[C@@H](CCCNC(=N)N)C(=O)N[C@@H](Cc1c[nH]c2ccccc12)C(=O)NCC(=O)N[C@@H](CCCCN)C(N)=O [Ac--[D-Phe^7]--alpha-MSH5-11 --NH2] (Ac-EH[dF]RWGK-NH2),,0.01,
CCCC[C@H](NC(C)=O)C(=O)N[C@@H](CCC(=O)O)C(=O)N[C@@H](Cc1c[nH]cn1)C(=O)N[C@@H](C(=O)N[C@@H](CCCNC(=N)N)C(=O)N[C@@H](Cc1c[nH]c2ccccc12)C(=O)NCC(=O)N[C@@H](CCCCN)C(N)=O)c1ccccc1 [Ac--[Nle^4 --D-Plg^7]--alpha-MSH4-11 --NH2] (Ac-[Nle]EH[dPhg]RWGK-NH2),0.0005,0.0003,
CCCC[C@H](NC(C)=O)C(=O)N[C@@H](CCC(=O)O)C(=O)N[C@@H](Cc1c[nH]cn1)C(=O)N[C@H](C(=O)N[C@@H](CCCNC(=N)N)C(=O)N[C@@H](Cc1c[nH]c2ccccc12)C(=O)NCC(=O)N[C@@H](CCCCN)C(N)=O)c1ccccc1 [Ac--[Nle^4 --Plg^7]--alpha-MSH4-11 --NH2] (Ac-[Nle]EH[Phg]RWGK-NH2),0.14,0.14,
CCCC[C@H](NC(C)=O)C(=O)N[C@@H](CCC(=O)O)C(=O)N[C@@H](Cc1c[nH]cn1)C(=O)N[C@H](Cc1ccccc1)C(=O)N[C@@H](CCCNC(=N)N)C(=O)N[C@H](Cc1c[nH]c2ccccc12)C(=O)NCC(=O)N[C@@H](CCCCN)C(N)=O [Ac--[Nle^4 --D-Phe^7 --D-Trp^9]--alpha-MSH4-11 --NH2] (Ac-[Nle]EH[dF]R[dW]GK-NH2),10.5,3.17,
CCCC[C@H](NC(C)=O)C(=O)N[C@@H](CCC(=O)O)C(=O)N[C@@H](Cc1c[nH]cn1)C(=O)N[C@H](Cc1ccccc1)C(=O)N[C@@H](CCCNC(=N)N)C(=O)N[C@@H](Cc1c[nH]c2ccccc12)C(N)=O [Ac--[Nle^4 --D-Phe^7 --alpha-MSH4-9 --NH2] (Ac-[Nle]EH[dF]RW-NH2),7.14,,
CCCC[C@H](NC(C)=O)C(=O)N[C@@H](CCC(=O)O)C(=O)N[C@@H](Cc1c[nH]cn1)C(=O)N[C@@H](Cc1ccc(O)cc1)C(=O)N[C@@H](CCCNC(=N)N)C(=O)N[C@@H](Cc1c[nH]c2ccccc12)C(=O)NCC(=O)N[C@@H](CCCCN)C(N)=O [Ac--[Nle^4 --Tyr^7]--alpha-MSH4-11 --NH2] (Ac-[Nle]EHYRWGK-NH2),0.0090,,
CCCC[C@H](NC(C)=O)C(=O)N[C@@H](CCC(=O)O)C(=O)N[C@@H](Cc1c[nH]cn1)C(=O)N[C@H](Cc1ccccc1)C(=O)N[C@@H](CCCNC(=N)N)C(=O)N[C@@H](Cc1ccccc1)C(=O)NCC(=O)N[C@@H](CCCCN)C(N)=O [Ac--[Nle^4 --D-Phe^7 --Phe^9]--alpha-MSH4-11 --NH2] (Ac-[Nle]EH[dF]RFGK-NH2),,0.017,
CCCC[C@H](NC(C)=O)C(=O)N[C@@H](CCC(=O)O)C(=O)N[C@@H](Cc1c[nH]cn1)C(=O)N[C@H](Cc1ccc(O)cc1)C(=O)N[C@@H](CCCNC(=N)N)C(=O)N[C@@H](Cc1c[nH]c2ccccc12)C(=O)NCC(=O)N[C@@H](CCCCN)C(N)=O [Ac--[Nle^4 --D-Tyr^7]--alpha-MSH4-11 --NH2] (Ac-[Nle]EH[dY]RWGK-NH2),1.0,,
CC(=O)N[C@@H](Cc1ccc(O)cc1)C(=O)N[C@@H](CCC(=O)O)C(=O)N[C@@H](Cc1c[nH]cn1)C(=O)N[C@H](Cc1ccccc1)C(=O)N[C@@H](CCCNC(=N)N)C(=O)N[C@@H](Cc1c[nH]c2ccccc12)C(=O)NCC(N)=O [Ac--[Tyr^4 --D-Phe^7 --alpha-MSH4-10 --NH2] (Ac-YEH[dF]RWG-NH2),,0.005,

# Source: patent US4866038A, “Method of stimulating integumental melanocytes by topical application of analogs of alpha-msh” (University Patents, Inc., priority 1988, dated 1989)
